From patent US10647680B2, “Urea compound, preparation method therefor and medical use thereof” (Ancureall Pharmaceutical (Shanghai) Co., Ltd., priority 2016, dated 2020)
Where two headings read alike, the source gives them in different places.

How the values were obtained:
[1] = system: MV4-11 (FLT3 ITD+/+ mutant type); assay: In vitro growth inhibition (GI50), MV4-11; type: cell-based, human; settings: for GI50: Homo sapiens; for growth inhibitory effect on MV4-11 (in words): FLT3-ITD positive cell line MV4-11; for inhibition activity against the growth of MV4-11 cells compared with AC220: compared with the control compound AC220
[2] = system: SH-SY5Y (expressing ALK F1174L mutant protein); assay: In vitro growth inhibition (GI50), SH-SY5Y; type: cell-based; settings: Homo sapiens
Text: Tumor cell line is an effective cell model for studying the inhibition of tumor cell growth or proliferation in vitro. In the present invention, a representative tumor cell line was selected to determine the cell growth inhibition activity of the present compound. All cell lines used were from ATCC, DSMZ, and the Cell Bank of the Chinese Academy of Sciences. Cell culture conditions and methods were in accordance with the requirements of each cell line. Cells were subcultured in vitro for no more than 3 passages each time, and as required, single-clone purification and identification of cell lines could be carried out.
The cell culture media used were RPMI1640 (Gibco), MEM (Gibco), McCOY'S5A (Gibco), and IMDM (Gibco). The complete medium was prepared by supplement with 5˜20% fetal calf serum (Gibco), 1% double-antibiotics (10000 units/mL penicillin and 10000 units/mL), 2 mM glutamine or 1 mM sodium pyruvate, respectively.
Human non-small cell lung cancer cell line NCI-H2228 (expressing EML4-ALK fusion gene, ATCC) and human anaplastic large cell lymphoma cell line Karpas-299 (expressing NPM-ALK fusion gene, ATCC) were cultured in complete medium comprising 1×RPMI1640 (10% FBS), respectively. Neuroblastoma cell line SH-SY5Y (expressing ALK F1174L mutant protein, Shanghai Cell Bank, Chinese Academy of Sciences) was cultured in MEM complete medium (1×MEM, 10% FBS, 1% NEAA, 1 mM sodium pyruvate).
Adherent cells were digested with 0.25% pancreatin-EDTA (Gibco). The suspension cells were collected by centrifugation. The supernatant was discarded and the cell pellet was resuspended and counted. Different cell concentrations (5˜10×10^4 cells/mL) were prepared according to the growth cycle of each cell line and then seeded on a 96-well plate (Corning), 100 μL/well. The cells were incubated overnight at 37° C., 5% CO2. The compounds were added to the cells on the second day with 2 wells in parallel. The final concentration of organic solvent shall not exceed 1%. The cells were continually incubated for 3 to 5 days, and then subjected to MTT assay.
The compound of the present invention and the control compound were dissolved in DMSO (Sigma) respectively, with the purity of more than 98%. The compound was stored in a concentration of 10 mM at −20° C. and diluted to 2- or 10-fold series prior to use.
Dojindo CCK8 reagent kit was used as MTT assay. THERMO […] FC meter was used as microplate reader.
For adherent cells, culture medium was removed and immediately replaced with the fresh prepared medium which contains 10% CCK8 reagent (100 μL/well). For the suspension cells, CCK8 was directly added to 10% of the final concentration. The cells were continually incubated for 1˜4 h. When a dark yellow color could be observed in the solvent control wells, the absorbance value at OD450 nm was measured and the cell growth rate was calculated according to the following formula: Cell Growth Rate (%)=100*(T−T0)/(C−T0) T=optical density of drug treatment cell well—optical density of blank control well; T0=optical density of cell well before drug treatment—optical density of blank control well; C=optical density of cell well of solvent control group—optical density of blank control well. The concentration value of 50% inhibition of cell growth (GI50) was calculated according to the drug concentration and cell growth rate curve. The experiment was independently repeated 1˜3 times, and subject to biological statistical analysis. 4. Experimental Results
Tumor cell growth inhibition test was performed by selecting representative compounds (compounds 4, 11, 12, 16, 27, 68, 71, 77, 79, 89 and 116 of the present invention). The initial concentration of the compound was 5,000 nM, then it was serially diluted by 2-fold or 10-fold to 0.01 nM. The GI50 value of each test compound was calculated according to the GI50 assay and calculation method. The experiments were repeated 1 to 3 times, and data were subjected to biological statistical analysis.

[3] = MV4-11, Cell lines of leukemia, read-out: GI 50 MV4-11 FLT3 (ITD +/+)
[4] = FLT3-ITD positive-expressing cell line MV4-11, Table 3, read-out: GI50 value, MV4-11
[5] = MV4-11, FLT3 ITD +/+, read-out: GI50

SMILES | GI50 [1, 3] | GI50 [1, 4] | GI50 [1, 5] | GI50 [2] | growth inhibitory effect on MV4-11 (in words) [1] | inhibition activity against the growth of MV4-11 cells compared with AC220 [1]
CC(C)(C)c1cc(NC(=O)Nc2ccc(-n3cnc4cc(OCCN5CCOCC5)ccc43)cc2)no1 [Compound 16, 1-(5-tert-butyl-isoxazol-3-yl)-3-{4-[5-(2-morpholin-4-yl-ethoxyl)-benzimidazol-1-yl]-phenyl}-urea] | 0.1 to 1 nM | 0.039 to 0.8 nM | 0.48 nM | > 2500 nM |  | 
COCCOc1ccc2c(c1)ncn2-c1ccc(NC(=O)Nc2cc(C(C)(C)C)n[nH]2)cc1 [Compound 77, 1-(5-tert-butyl-2H-pyrazol-3-yl)-3-{4-[5-(2-methoxyl-ethoxyl)-benzimidazol-1-yl]-phenyl}-urea] | 0.01 to 0.1 nM | 0.039 to 0.8 nM | 0.093 nM | > 2500 nM |  | stronger inhibition activity
CC(C)(C)c1cc(NC(=O)Nc2ccc(-n3cnc4ccc(OCCN5CCOCC5)cc43)cc2)no1 [Compound 27, 1-(5-tert-butyl-isoxazol-3-yl)-3-{4-[6-(2morpholin-4-yl-ethoxyl)-benzimidazol-1-yl]-phenyl}-urea] | 0.1 to 1 nM | 0.039 to 0.8 nM | 0.78 nM | > 2500 nM |  | 
CC(C)(C)c1cc(NC(=O)Nc2ccc(-n3cnc4cc(O)ccc43)cc2)no1 [Compound 4, 1-(5-tert-butyl-isoxazol-3-yl)-3-[4-(5-hydroxy-benzimidazol-1-yl)-phenyl]-urea] | 0.1 to 1 nM |  | 0.12 nM | > 2500 nM | strong growth inhibitory effects | 
CC(C)(C)c1cc(NC(=O)Nc2ccc(-n3cnc4cc(OCCO)ccc43)cc2)no1 [Compound 11, 1-(5-tert-butyl-isoxazol-3-yl)-3-{4-[5-(2-hydroxy-ethoxyl)-benzimidazol-1-yl]-phenyl]-urea] | 0.01 to 0.1 nM |  | 0.07 nM | > 2500 nM | strong growth inhibitory effects | stronger inhibition activity

Further lines, with some results ahead:

GI50 [1, 3] | GI50 [1, 4] | GI50 [1, 5] | GI50 [2] | SMILES | growth inhibitory effect on MV4-11 (in words) [1] | inhibition activity against the growth of MV4-11 cells compared with AC220 [1]
10 to 100 nM | 0.039 to 0.8 nM | 1.51 nM | > 2500 nM | CC(C)(C)c1cc(N)n(C(=O)Nc2ccc(-n3cnc4ccccc43)cc2)n1 [Compound 116, 5-amino-3-tert-butyl-pyrazol-1-carboxylic acid (4-benzimidazol-1-yl-phenyl)-amide] |  | 
0.01 to 0.1 nM |  | 0.047 nM | > 2500 nM | CC(C)(C)c1cc(NC(=O)Nc2ccc(-n3cnc4cc(OCCO)ccc43)cc2)[nH]n1 [Compound 79, 1-(5-tert-butyl-2H-pyrazol-3-yl)-3-{4-[5-(2-hydroxy-ethoxyl)-benzimidazol-1-yl]-phenyl]urea] | strong growth inhibitory effects | stronger inhibition activity
0.01 to 0.1 nM | 0.039 to 0.8 nM | 0.041 nM | > 2500 nM | CC(C)(C)c1cc(NC(=O)Nc2ccc(-n3cnc4cc(OCCN5CCOCC5)ccc43)cc2)[nH]n1 [Compound 89, 1-(5-tert-butyl-2H-pyrazol-3-yl)-3-{4-[5-(2-morpholin-4-yl-ethoxyl)-benzimidazol-1-yl]-phenyl}-urea] |  | stronger inhibition activity
0.01 to 0.1 nM | 0.039 to 0.8 nM | 0.039 nM | > 2500 nM | COc1ccc2c(c1)ncn2-c1ccc(NC(=O)Nc2cc(C(C)(C)C)n[nH]2)cc1 [Compound 71, 1-(5-tert-butyl-2H-pyrazol-3-yl)-3-[4-(5-methoxyl-benzimidazol-1-yl)-phenyl]-urea] |  | stronger inhibition activity
0.1 to 1 nM | 0.039 to 0.8 nM | 0.48 nM | > 2500 nM | CC(C)(C)c1cc(NC(=O)Nc2ccc(-n3cnc4ccccc43)cc2)[nH]n1 [Compound 68, 1-(4-benzimidazol-1-yl-phenyl)-3-(5-tert-butyl-2H-pyrazol-3-yl)-urea] |  | 
